Consider 5 compounds from patent EP0115547B1 (priority 1983, dated 1984).

The subject of the data set is T7-Phagen. The settings on record: pH 7.

As for `CS(=O)(=O)OCCNCC(O)C(O)CNCCOS(C)(=O)=O` (stereo not shown) [1,4-Di-{2'-(methylsulfonyl)-oxy-äthylamino}-1,4-di-{desoxy}-ery-thrit-dimethylsulfat], the “Kehrwert der pyrimidin-dimeräquivalenten Dosis” value is 111 1 Mol . Minute.
As to `CN(Cc1cnc2nc(N)nc(N)c2n1)c1ccc(C(=O)N[C@@H](CCC(=O)O)C(=O)O)cc1` [4-Desoxy-4-amino-10-methylfolsäure], the “Kehrwert der pyrimidin-dimeräquivalenten Dosis” value was 11 1 Mol . Minute.
For the compound `CC(=O)N1CC1` [N-(Acetyl)-äthylenimin], the “Kehrwert der pyrimidin-dimeräquivalenten Dosis” value is recorded as 33 1 Mol . Minute.
For the compound `CN(N=O)C(N)=O` [Nitrosomethylharnstoff], the “Kehrwert der pyrimidin-dimeräquivalenten Dosis” value was 0,76 1 Mol . Minute.
For `Cc1ncc(C[n+]2csc(CCO)c2C)c(N)n1` [Vitamin B1], the “1n [N(t)/N(O)]=-1 zugehörige Bebrütungs- beziehungsweise Inkubationszeit” value was found to be 291 Minuten, the “Kehrwert der pyrimidindimeräquivalenten Dosis” value is recorded as 0,03 l/Mol· Minute and the “pyrimidindimeräquivalente Dosis” value is 29 Mol - Minute/I.
